Test results: US20120157439A1, “RAF INHIBITOR COMPOUNDS AND METHODS OF USE THEREOF” (GENENTECH, INC., priority 2009, published 2012)
Where two headings read alike, the source gives them in different places.

Target: T1, V600E full-length B-Raf (Homo sapiens, UniProt P15056, V600E)
T1 construct: 1 μM FSBA-MEK and 20 nM V600E full-length B-Raf; made in house; host or cells: sf9 insect cells (baculovirus)
Experiment: B-Raf IC50 Assay (B-RAF V600E inhibition assay, Example A)
Format: biochemical
Excerpt: Determining the activity of Raf in the sample is possible by a number of direct and indirect detection methods (US 2004/0082014). Activity of human recombinant B-Raf protein may be assessed in vitro by assay of the incorporation of radio labeled phosphate to recombinant MAP kinase (MEK), a known physiologic substrate of B-Raf, according to US 2004/0127496 and WO 03/022840. The activity/inhibition of V600E full-length B-Raf was estimated by measuring the incorporation of radio labeled phosphate from [γ-33P]ATP into FSBA-modified wild-type MEK (see Example A).
Activity of human recombinant B-Raf protein may be assessed in vitro by assay of the incorporation of radio labeled phosphate to recombinant MAP kinase (MEK), a known physiologic substrate of B-Raf, according to U.S. Patent Appl. Publication No. 2004/0127496 and WO 03/022840. Catalytically active human recombinant B-Raf protein is obtained by purification from sf9 insect cells infected with a human B-Raf recombinant baculovirus expression vector.
The activity/inhibition of V600E full-length B-Raf was estimated by measuring the incorporation of radio labeled phosphate from [γ-33P]ATP into FSBA-modified wild-type MEK. The […] assay mixtures contained 25 mM Na Pipes, pH 7.2, 100 mM KCl, 10 mM MgCl2, 5 mM β-glycerophosphate, 100 μM Na Vanadate, 4 μM ATP, 500 nCi [γ-33P]ATP, 1 μM FSBA-MEK and 20 nM V600E full-length B-Raf. Incubations were carried out at 22° C. in a Costar 3365 plate (Corning). Prior to the assay, the B-Raf and FSBA-MEK were preincubated together in assay buffer at 1.5× (20 μL of 30 nM and 1.5 μM, respectively) for 15 minutes, and the assay was initiated by the addition of 10 μL of […]. Following the 60-minute incubation, the assay mixtures were quenched by the addition of 100 μL of 25% TCA, the plate was mixed on a rotary shaker for 1 minute, and the product was captured on a Perkin-Elmer GF/B filter plate using a Tomtec Mach III Harvester. After sealing the bottom of the plate, 35 μL of Bio-Safe II (Research Products International) scintillation cocktail were added to each well and the plate was top-sealed and counted in a Topcount NXT (Packard).

[1] = B-Raf V600E assay of Example A: less than 100 nM, read-out: IC50
[2] = B-Raf V600E assay of Example A: less than about 1 μM, read-out: IC50
[3] = incorporation of radio labeled phosphate from [γ-33P]ATP into FSBA-modified wild-type MEK, 4 μM ATP, 20 nM V600E full-length B-Raf, 60-minute incubation, 22° C., read-out: BRAF V600E IC50

T1 sequence (P15056 whole entry V600E): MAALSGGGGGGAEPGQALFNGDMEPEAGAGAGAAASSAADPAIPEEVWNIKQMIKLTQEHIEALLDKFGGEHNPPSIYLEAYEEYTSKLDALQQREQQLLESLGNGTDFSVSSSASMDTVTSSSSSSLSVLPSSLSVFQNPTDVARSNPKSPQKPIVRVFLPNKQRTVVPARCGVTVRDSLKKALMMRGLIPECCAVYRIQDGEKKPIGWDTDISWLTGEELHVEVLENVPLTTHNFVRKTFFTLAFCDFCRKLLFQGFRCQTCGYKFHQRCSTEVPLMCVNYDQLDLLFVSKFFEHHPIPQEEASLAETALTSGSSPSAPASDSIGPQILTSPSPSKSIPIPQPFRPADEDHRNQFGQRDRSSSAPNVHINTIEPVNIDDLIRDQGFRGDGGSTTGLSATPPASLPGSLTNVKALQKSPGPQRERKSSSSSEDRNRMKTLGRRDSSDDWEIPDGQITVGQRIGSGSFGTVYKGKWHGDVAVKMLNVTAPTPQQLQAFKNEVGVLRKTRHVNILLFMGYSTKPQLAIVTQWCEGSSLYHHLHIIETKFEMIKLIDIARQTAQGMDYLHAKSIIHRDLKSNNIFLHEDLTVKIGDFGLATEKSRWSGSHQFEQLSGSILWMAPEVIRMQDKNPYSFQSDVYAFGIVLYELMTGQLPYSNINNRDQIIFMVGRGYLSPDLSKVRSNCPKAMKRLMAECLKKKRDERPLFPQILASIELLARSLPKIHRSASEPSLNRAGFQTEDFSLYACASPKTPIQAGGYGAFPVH

## CCCS(=O)(=O)Nc1ccc(F)c(NC(=O)c2scc3c(N)ncnc23)c1F [Example 100, 4-Amino-N-(2,6-difluoro-3-(propylsulfonamido)phenyl)thieno[3,4-d]pyrimidine-7-carboxamide]
[1]
  IC50: < 100 nM
[2]
  IC50: < 1000 nM
[3]
  IC50: 29.8 nM

## CCCS(=O)(=O)Nc1ccc(Cl)c(NC(=O)c2csc3c(NC4CN(C)C4)ncnc23)c1Cl [Example 75, 4-(1-Methyl-azetidin-3-ylamino)-thieno[3,2-d] pyrimidine-7-carboxylic acid [2,6-dichloro-3-(propane-1-sulfonyl-amino)-phenyl]amide]
[3]
  IC50: > 1000 nM

## CCCS(=O)(=O)Nc1ccc(Cl)c(NC(=O)c2csc3c(N)ncnc23)c1F [Example 7, 4-Amino-thieno[3,2-d] pyrimidine-7-carboxylic acid [6-chloro-2-fluoro-3-(propane-1-sulfonyl-amino)-phenyl]-amide]
[1]
  IC50: < 100 nM
[2]
  IC50: < 1000 nM
[3]
  IC50: 1.01 nM

## CCCS(=O)(=O)Nc1ccc(F)c(NC(=O)c2csc3c(CC)ncnc23)c1F [Example 41, 4-Ethyl-thieno[3,2-d]pyrimidine-7-carboxylic acid [2,6-difluoro-3-(propane-1-sulfonylamino)-phenyl]-amide]
[2]
  IC50: < 1000 nM
[3]
  IC50: 112 nM

## Cc1ncnc2c(C(=O)Nc3c(Cl)ccc(NS(=O)(=O)CCCF)c3Cl)csc12 [Example 39, 4-Methyl-thieno[3,2-d]pyrimidine-7-carboxylic acid [2,6-dichloro-3-(3-fluoro-propane-1-sulfonylamino)-phenyl]-amide]
[1]
  IC50: < 100 nM
[2]
  IC50: < 1000 nM
[3]
  IC50: 1.11 nM

## CCCS(=O)(=O)Nc1ccc(Cl)c(NC(=O)c2csc3c(NC(C)C)ncnc23)c1Cl [Example 70, 4-Isopropyl-amino-thieno [3,2-d] pyrimidine-7-carboxylic acid [2 6-dichloro-3-(propane-1-sulfonyl-amino)-phenyl]-amide]
[1]
  IC50: < 100 nM
[2]
  IC50: < 1000 nM
[3]
  IC50: 3.4 nM

## CN(C)S(=O)(=O)Nc1ccc(F)c(NC(=O)c2csc3c(N)ncnc23)c1F [Example 29, 4-Amino-N-(3-(N,N-dimethylsulfamoylamino)-2,6-difluorophenyl)thieno[3,2-d]pyrimidine-7-carboxamide]
[1]
  IC50: < 100 nM
[2]
  IC50: < 1000 nM
[3]
  IC50: 88 nM

## CCCS(=O)(=O)Nc1ccc(F)c(NC(=O)c2c[nH]c3c(C)ncnc23)c1F [Example 106, 4-Methyl-5H-pyrrolo[3,2-d]pyrimidine-7-carboxylic acid [2,6-difluoro-3-(propane-1-sulfonylamino)-phenyl]-amide]
[2]
  IC50: < 1000 nM
[3]
  IC50: 189 nM

## CCCS(=O)(=O)Nc1ccc(F)c(NC(=O)c2csc3c(C)ncnc23)c1F [Example 40, 4-Methyl-thieno[3,2-d]pyrimidine-7-carboxylic acid [2,6-difluoro-3-(propane-1-sulfonylamino)-phenyl]-amide]
[1]
  IC50: < 100 nM
[2]
  IC50: < 1000 nM
[3]
  IC50: 85.5 nM

## CCS(=O)(=O)Nc1ccc(Cl)c(NC(=O)c2csc3c(N)ncnc23)c1F [Example 3, 4-Amino-thieno[3,2-d] pyrimidine-7-carboxylic acid (6-chloro-3-ethane-sulfonylamino-2-fluoro-phenyl)-amide]
[1]
  IC50: < 100 nM
[2]
  IC50: < 1000 nM
[3]
  IC50: 3.89 nM

## CCCS(=O)(=O)Nc1ccc(F)c(NC(=O)c2csc3c(NCC)ncnc23)c1Cl [Example 44, 4-Ethylamino-thieno[3,2-d]pyrimidine-7-carboxylic acid [2-chloro-6-fluoro-3-(propane-1-sulfonylamino)-phenyl]-amide]
[1]
  IC50: < 100 nM
[2]
  IC50: < 1000 nM
[3]
  IC50: 8.7 nM

## CCCS(=O)(=O)Nc1cc(F)c(F)c(NC(=O)c2csc3c(NN4CCOCC4)ncnc23)c1F [Example 95, 4-(Morpholin-4-ylamino)-thieno[3,2-d] pyrimidine-7-carboxylic acid [2,3,6-trifluoro-5-(propane-1-sulfonyl-amino)-phenyl]-amide]
[1]
  IC50: < 100 nM
[2]
  IC50: < 1000 nM
[3]
  IC50: 5.09 nM

## CCCS(=O)(=O)Nc1ccc(F)c(NC(=O)c2csc3c(NOC)ncnc23)c1Cl [Example 37, 4-Methoxyamino-thieno[3,2-d]pyrimidine-7-carboxylic acid [2-chloro-6-fluoro-3-(propane-1-sulfonylamino)-phenyl]-amide]
[1]
  IC50: < 100 nM
[2]
  IC50: < 1000 nM
[3]
  IC50: 9.2 nM

## Nc1ncnc2c(C(=O)Nc3c(Cl)ccc(NS(=O)(=O)CCCF)c3F)csc12 [Example 13, 4-Amino-thieno[3,2-d]pyrimidine-7-carboxylic acid[6-chloro-2-fluoro-3-(3-fluoro-propane-1-sulfonylamino)-phenyl]-amide]
[1]
  IC50: < 100 nM
[2]
  IC50: < 1000 nM
[3]
  IC50: 0.1 nM

## CCCS(=O)(=O)Nc1ccc(F)c(NC(=O)c2c[nH]c3c(NC4CC4)ncnc23)c1F [Example 104, 4-Cyclopropylamino-5H-pyrrolo[3,2-d]pyrimidine-7-carboxylic acid [2,6-difluoro-3-(propane-1-sulfonylamino)-phenyl]-amide]
[1]
  IC50: < 100 nM
[2]
  IC50: < 1000 nM
[3]
  IC50: 47.6 nM

## Nc1ncnc2c(C(=O)Nc3c(F)ccc(NS(=O)(=O)N4CCCC4)c3F)csc12 [Example 28, 4-Amino-thieno[3,2-d]pyrimidine-7-carboxylic acid[2,6-difluoro-3-(pyrrolidine-1-sulfonylamino)-phenyl]-amide]
[1]
  IC50: < 100 nM
[2]
  IC50: < 1000 nM
[3]
  IC50: 11.6 nM

## CCCS(=O)(=O)Nc1ccc(F)c(NC(=O)c2csc3c(NC4CC4)ncnc23)c1F [Example 47]
[1]
  IC50: < 100 nM
[2]
  IC50: < 1000 nM
[3]
  IC50: 4.7 nM

## Nc1ncnc2c(C(=O)Nc3c(Cl)ccc(NS(=O)(=O)CCCF)c3F)nsc12 [Example 32, 7-Amino-isothiazolo[4,5-d]pyrimidine-3-carboxylic acid [6-chloro-2-fluoro-3-(3-fluoro-propane-1-sulfonylamino)-phenyl]-amide]
[1]
  IC50: < 100 nM
[2]
  IC50: < 1000 nM
[3]
  IC50: 0.18 nM

## CCCS(=O)(=O)Nc1ccc(F)c(NC(=O)c2csc3c(Nc4ccccn4)ncnc23)c1F [Example 62, 4-(Pyridin-2-ylamino)-thieno[3,2-d] pyrimidine-7-carboxylic acid [2,6-difluoro-3-(propane-1-sulfonylamino)-phenyl]-amide]
[1]
  IC50: < 100 nM
[2]
  IC50: < 1000 nM
[3]
  IC50: 27.1 nM

## Nc1ncnc2c(C(=O)Nc3c(Cl)ccc(NS(=O)(=O)CCCF)c3Cl)csc12 [Example 24, 4-Amino-thieno[3,2-d] pyrimidine-7-carboxylic acid [2,6-dichloro-3-(3-fluoro-propane-1-sulfonylamino)-phenyl]-amide]
[1]
  IC50: < 100 nM
[2]
  IC50: < 1000 nM
[3]
  IC50: 0.11 nM

## CCCS(=O)(=O)Nc1ccc(F)c(NC(=O)c2snc3c(N)ncnc23)c1F [Example 34, 7-Amino-isothiazolo[4,3-d]pyrimidine-3-carboxylic acid [2,6-difluoro-3-(propane-1-sulfonylamino)-phenyl]-amide]
[1]
  IC50: < 100 nM
[2]
  IC50: < 1000 nM
[3]
  IC50: 5 nM

## CCCS(=O)(=O)Nc1ccc(F)c(NC(=O)c2csc3c(NCC(C)(C)C)ncnc23)c1F [Example 58, 4-(2,2-Dimethyl-propylamino)-thieno[3,2-d] pyrimidine-7-carboxylic acid [2,6-difluoro-3-(propane-1-sulfonylamino)-phenyl]-amide]
[2]
  IC50: < 1000 nM
[3]
  IC50: 902 nM
